Data from patent US20230125667A1, “NOVEL TDZD ANALOGS AS AGENTS THAT DELAY, PREVENT, OR REVERSE AGE-ASSOCIATED DISEASES AND AS ANTI-CANCER AND ANTILEUKEMIC AGENTS” (United States Government as represented by the Department …, priority 2020, published 2023).

Assays:
[1] = system: MDA-MB-468; experiment: NCI-60 growth inhibition: MDA-MB-468 (Breast Cancer); assay type: cell-based, human; details: MDA-MB-468 (Breast Cancer); read-out: GI50
[2] = system: SK-MEL-28; experiment: NCI-60 growth inhibition: SK-MEL-28 (Melanoma); assay type: cell-based, human
[3] = system: SNB-19; experiment: NCI-60 growth inhibition: SNB-19 (CNS Cancer); assay type: cell-based, human
[4] = system: MDA-MB-435; experiment: NCI-60 growth inhibition: MDA-MB-435 (Melanoma); assay type: cell-based, human
[5] = system: HOP-92; experiment: NCI-60 growth inhibition: HOP-92 (Non-Small-Cell Lung Cancer); assay type: cell-based, human
[6] = system: BT-549; experiment: NCI-60 growth inhibition: BT-549 (Breast Cancer); assay type: cell-based, human
[7] = system: UO-31; experiment: NCI-60 growth inhibition: UO-31 (Renal Cancer); assay type: cell-based, human
[8] = system: LOX IMVI; experiment: NCI-60 growth inhibition: LOX IMVI (Melanoma); assay type: cell-based, human
[9] = system: TK-10; experiment: NCI-60 growth inhibition: TK-10 (Renal Cancer); assay type: cell-based, human
[10] = system: HL-60(TB); experiment: NCI-60 growth inhibition: HL-60(TB) (Leukemia); assay type: cell-based, human; details: HL-60(TB) (Leukemia); read-out: GI50
[11] = system: SW-620; experiment: NCI-60 growth inhibition: SW-620 (Colon Cancer); assay type: cell-based, human
[12] = system: OVCAR-3; experiment: NCI-60 growth inhibition: OVCAR-3 (Ovarian Cancer); assay type: cell-based, human
[13] = system: human leukemia cell lines; experiment: NCI-60 growth inhibition, leukemia cell lines; details: NCI panel
[14] = system: UACC-257; experiment: NCI-60 growth inhibition: UACC-257 (Melanoma); assay type: cell-based, human
[15] = system: DU-145; experiment: NCI-60 growth inhibition: DU-145 (Prostate Cancer); assay type: cell-based, human
[16] = system: SF-539; experiment: NCI-60 growth inhibition: SF-539 (CNS Cancer); assay type: cell-based, human
[17] = system: MV4-11 cell line (myelomonocytic leukemia); details: MV4-11 cells, 24 h, MMB-TDZD analogs (Table 2)
[18] = system: SNB-75; experiment: NCI-60 growth inhibition: SNB-75 (CNS Cancer); assay type: cell-based, human
[19] = system: NCI-H23; experiment: NCI-60 growth inhibition: NCI-H23 (Non-Small-Cell Lung Cancer); assay type: cell-based, human
[20] = system: U251; experiment: NCI-60 growth inhibition: U251 (CNS Cancer); assay type: cell-based, human
[21] = system: RXF 393; experiment: NCI-60 growth inhibition: RXF 393 (Renal Cancer); assay type: cell-based, human
[22] = system: PC-3; experiment: NCI-60 growth inhibition: PC-3 (Prostate Cancer); assay type: cell-based, human
[23] = system: NCI-H522; experiment: NCI-60 growth inhibition: NCI-H522 (Non-Small-Cell Lung Cancer)
[24] = system: CCRF-CEM; experiment: NCI-60 growth inhibition: CCRF-CEM (Leukemia); assay type: cell-based, human
[25] = system: OVCAR-5; experiment: NCI-60 growth inhibition: OVCAR-5 (Ovarian Cancer); assay type: cell-based, human
[26] = system: ACHN; experiment: NCI-60 growth inhibition: ACHN (Renal Cancer); assay type: cell-based, human
[27] = system: MDA-MB-231/ATCC; experiment: NCI-60 growth inhibition: MDA-MB-231/ATCC (Breast Cancer); assay type: cell-based, human
[28] = system: MALME-3M; experiment: NCI-60 growth inhibition: MALME-3M (Melanoma); assay type: cell-based, human
[29] = system: SK-MEL-5; experiment: NCI-60 growth inhibition: SK-MEL-5 (Melanoma); assay type: cell-based, human
[30] = system: HCT-15; experiment: NCI-60 growth inhibition: HCT-15 (Colon Cancer); assay type: cell-based, human
[31] = system: HCT-116; experiment: NCI-60 growth inhibition: HCT-116 (Colon Cancer)
[32] = system: 786-0; experiment: NCI-60 growth inhibition: 786-0 (Renal Cancer); assay type: cell-based, human
[33] = system: K-562; experiment: NCI-60 growth inhibition: K-562 (Leukemia); assay type: cell-based, human
[34] = system: MCF7; experiment: NCI-60 growth inhibition: MCF7 (Breast Cancer); assay type: cell-based, human
[35] = system: HT29; experiment: NCI-60 growth inhibition: HT29 (Colon Cancer); assay type: cell-based, human
[36] = system: SF-268; experiment: NCI-60 growth inhibition: SF-268 (CNS Cancer); assay type: cell-based, human
[37] = system: OVCAR-4; experiment: NCI-60 growth inhibition: OVCAR-4 (Ovarian Cancer); assay type: cell-based, human
[38] = system: IGROV1; experiment: NCI-60 growth inhibition: IGROV1 (Ovarian Cancer); assay type: cell-based, human
[39] = system: A498; experiment: NCI-60 growth inhibition: A498 (Renal Cancer); assay type: cell-based, human
[40] = system: HS 578T; experiment: NCI-60 growth inhibition: HS 578T (Breast Cancer); assay type: cell-based, human
[41] = system: COLO 205; experiment: NCI-60 growth inhibition: COLO 205 (Colon Cancer); assay type: cell-based, human
[42] = system: SN12C; experiment: NCI-60 growth inhibition: SN12C (Renal Cancer); assay type: cell-based, human
[43] = system: UACC-62; experiment: NCI-60 growth inhibition: UACC-62 (Melanoma); assay type: cell-based, human
[44] = system: SK-MEL-2; experiment: NCI-60 growth inhibition: SK-MEL-2 (Melanoma); assay type: cell-based, human
[45] = system: OVCAR-8; experiment: NCI-60 growth inhibition: OVCAR-8 (Ovarian Cancer); assay type: cell-based, human
[46] = system: T-47D; experiment: NCI-60 growth inhibition: T-47D (Breast Cancer); assay type: cell-based, human
[47] = system: NCI-H460; experiment: NCI-60 growth inhibition: NCI-H460 (Non-Small-Cell Lung Cancer); assay type: cell-based, human
[48] = system: MOLT-4; experiment: NCI-60 growth inhibition: MOLT-4 (Leukemia); assay type: cell-based, human
[49] = system: CAKI-1; experiment: NCI-60 growth inhibition: CAKI-1 (Renal Cancer); assay type: cell-based, human
[50] = system: RPMI-8226; experiment: NCI-60 growth inhibition: RPMI-8226 (Leukemia); assay type: cell-based, human
[51] = system: EKVX; experiment: NCI-60 growth inhibition: EKVX (Non-Small-Cell Lung Cancer); assay type: cell-based, human
[52] = system: M14; experiment: NCI-60 growth inhibition: M14 (Melanoma); assay type: cell-based, human

SMILES: C=C1C(=O)O[C@H]2[C@H]1CC/C(COC(=O)NCc1ccc(Cn3c(=O)sn(CCCC#N)c3=O)cc1)=C\CC[C@@]1(C)O[C@@H]21 [BSK-226]
- GI50 [1]: 1530 nM
- GI50 [2]: 1690 nM
- GI50 [3]: 4840 nM
- GI50 [4]: 1800 nM
- GI50 [5]: 1100 nM
- GI50 [6]: 1480 nM
- GI50 [7]: 1400 nM
- GI50 [8]: 1580 nM
- GI50 [9]: 1750 nM
- GI50 [10]: 960 nM
- GI50 [11]: 1230 nM
- GI50 [12]: 770 nM
- potency against leukemia cell lines (GI50 <1.0) [13]: comparably potent against 4 out of 5 leukemia cell lines
- GI50 [14]: 1610 nM
- GI50 [15]: 1640 nM
- GI50 [16]: 1730 nM
- LD50, 7AAD (μM) 24 h ([17]; 7AAD): 0.75 µM
- LD50, Alamar blue (μM) 24 h ([17]; Alamar blue): 0.45 µM
- LD50, YOPRO (μM) 24 h ([17]; YOPRO): 0.37 µM
- GI50 [18]: 2030 nM
- GI50 [19]: 2330 nM
- GI50 [20]: 5050 nM
- GI50 [21]: 1350 nM
- GI50 [22]: 2130 nM
- GI50 ([23]; NCI-H522 (Non-Small-Cell Lung Cancer)): 530 nM
- GI50 ([23]; NCI-H522 (non-small-cell lung cancer)): 530 nM
- GI50 [24]: 570 nM
- GI50 [25]: 2640 nM
- GI50 [26]: 1660 nM
- GI50 [27]: 1720 nM
- GI50 [28]: 1340 nM
- GI50 [29]: 3720 nM
- GI50 [30]: 1940 nM
- GI50 ([31]; HCT-116 (Colon Cancer)): 560 nM
- GI50 ([31]; HCT-116 (colon cancer)): 560 nM
- GI50 [32]: 1480 nM
- GI50 [33]: 720 nM
- GI50 [34]: 1710 nM
- GI50 [35]: 2460 nM
- GI50 [36]: 2630 nM
- GI50 [37]: 1670 nM
- GI50 [38]: 1780 nM
- GI50 [39]: 2830 nM
- GI50 [40]: 5640 nM
- GI50 [41]: 2040 nM
- GI50 [42]: 1360 nM
- GI50 [43]: 1440 nM
- GI50 [44]: 4830 nM
- GI50 [45]: 2320 nM
- GI50 [46]: 1970 nM
- GI50 [47]: 11300 nM
- GI50 [48]: 1500 nM
- GI50 [49]: 2050 nM
- GI50 [50]: 760 nM
- GI50 [51]: 2820 nM
- GI50 [52]: 1930 nM
